This series can be described thus: pH. Type of series: physicochemical. Conditions: free propionic acid, stated in the discussion.

On to `CCC(=O)O` [free propionic acid, propionic acid], for which the pH entry was “less than 2”.
